In patent publication US9084782B2, “Chemical inhibitors of cholesterol biosynthesis and venous angiogenesis” (The Regents of the University of California, priority 2011, dated 2015):
Entries after “also recorded” stand apart in the source; their conditions may differ.

Legend:
[1] = test system: caudal vein endothelial cells; test: Caudal vein endothelial cell migration, time-lapse confocal imaging; type: in vivo, zebrafish; conditions: 10 μM aplexone
Procedure: A-B, Representative images of the caudal vein of control (A) and 10 μM aplexone-treated embryos (B) at 30 hpf. Images were overlaid with the endothelial cell migration path inferred from time-lapse confocal movies taken from 25 hpf to 30 hpf. The migration of caudal vein endothelial cells was traced using the Manual Tracking feature of ImageJ and the positions of ISV sprouting points were used as references to adjust for the growth of embryos. C, The distance of endothelial cell migration in caudal vein of control and aplexone-treated Tg(kdrl:GFP) embryos. Asterisk indicates p<0.05. (D) The window of application of aplexone. Grey bars represent the developmental stages during which Tg(kdrl:GFP) embryos were exposed to 10 μM aplexone and the caudal vein phenotype was analyzed at 48 hpf. […] A “−” indicates the formation of normal caudal vein plexus.
Images of GFP expression in Tg(kdrl:GFP) embryos were acquired using a Zeiss SV-11 epifluorescence microscope. Confocal images were acquired using a Carl Zeiss Laser Scanning Systems LSM510 equipped with 20× air, 20× water or 40× water immersion objectives. For single time point confocal images, embryos were anesthetized with 0.01% tricaine and embedded in 1% agarose. […] The images obtained were analyzed using the Zeiss LSM Image Brower version 4 and Image J. […]

HMGCR pathway [2] = test: Microarray expression profiling of aplexone-treated embryos (Affymetrix Zebrafish GeneChip); type: in vivo; conditions: 10 μM, RNA at 30 hpf
Procedure: Embryos at the 5-somite stage were treated with 0.4% DMSO (control) or 10 μM of aplexone in 0.4% DMSO and total RNA was isolated using the RNAeasy micro kit (Qiagen) at 30 hpf. Microarray analysis was performed in triplicate using the Affymetrix Zebrafish GeneChip, representing 15,617 genes. Synthesis and labeling of antisense RNA was performed as recommended by the array manufacturer using kits from Invitrogen for double-stranded cDNA synthesis, Enzo Life Sciences for transcription and labeling of antisense RNA and Affymetrix for probe purification and hybridization controls. Microarray hybridization data were analyzed using scripts written in the statistical programming language R (Team, 2009). Differentially expressed genes (DEGs) were identified using a linear model and multiple testing correction from the limma package (Smyth, 2004). The expression values were obtained using the robust multi array algorithm (Irizarry et al., 2003).

HMGCR pathway [3] = test: Cholesterol assay in embryo lysate (Amplex Red); type: in vivo, zebrafish
Procedure: The yolk was removed from embryos by vortexing in calcium-free Ringer's solution with 1 mM EDTA at 4° C. The embryos were then pelleted and washed with fresh calcium free Ringer's solution 5 times before being resuspended in cholesterol assay reaction buffer and were then lysed by sonication using a Sonifier 450 (Branson). Cholesterol levels in the embryo lysate were measured with an Amplex Red Cholesterol Assay Kit (Invitrogen) and Flex station II (Bucher Biotec). The total protein concentration of the embryo lysate was measured using a DC protein assay (Bio-Rad Laboratories) and SpectraMax plus (Molecular Devices).

[4] = test system: ephrinB2a, ephB4 and flt4; test: In situ hybridization for arterial and venous markers; type: in vivo, zebrafish; conditions: 10 μM from 10 hpf, fixed at 24 hpf
Procedure: Untreated control embryos (A, C, E and A′, C′, E′) and embryos treated with 10 μM aplexone beginning at 10 hpf (B, D, F and B′, D′, F′) were fixed at 24 hpf. Arterial and venous fates were analyzed by in situ hybridization using ephrinB2a (A,A′,B,B′), ephB4 (C,C′,D,D′) and flt4 (E,E′,F,F′) probes. Arrowhead, dorsal aorta. Embryos were analyzed at higher magnification in the trunk in A′-F′, with regions of interest indicated by black boxes in A-F. Arrow, posterior cardinal vein.
To understand whether angiogenesis from arterial and venous ECs are under different genetic controls we screened a collection of small molecules for compounds that preferentially suppress angiogenesis from exclusively one cell type. In this screen, we used the primary ISV sprouts as the readout for arterial-derived angiogenesis, and the CVP and secondary ISV sprouts as indicators of venous-derived angiogenesis. We found one synthetic compound, aplexone, which has a lineage-dependent effect on angiogenesis. The spatial and temporal development of primary ISVs in the trunk is indistinguishable between 2-day-old control and aplexone-treated embryos (FIG. 1L-M′). […] Secondary ISVs are also absent in these embryos (FIG. 1L-M′).

HUAECs = test: Wound healing assay, HUAECs; type: cell-based, human
Procedure: HUVECs and HUAECs were purchased from VEC Technologies. Cells were cultured on 0.1% Gelatin-coated dishes in Medium 199 (Mediatech), supplemented with 15% Fetal Bovine Serum (ATCC), 48 μg/mL Endothelial Cell Growth Supplement (BD Biosciences), 64 μg/mL Heparin Sulfate (Sigma-Aldrich), 0.9 mM Sodium Pyruvate (Mediatech), 100 IU/ml Penicillin (Mediatech), and 100 μg/ml Streptomycin (Mediatech).
For the wound healing assay, cells were cultured in 24-well plates to confluence before being subjected to a 2-hour pre-treatment with either DMSO, aplexone, Rockout (Calbiochem) or NSC 23766 (TOCRIS Bioscience). After the pre-treatment, the monolayer of endothelial cells was scratched and the closure of the wound was measured after 8 hr. The images of wounds were taken at 0 and 8 hr after scratching and the area of the wound was measured using Image J. The migration distance (the width of the wound) was calculated by dividing the area by the length of the wound. Cells below passage seven were used in this study.

Structure (SMILES): CC(=O)C1=CCC(c2ccccc2)N(S(=O)(=O)c2ccc(C)cc2)C1 (stereo not drawn) [aplexone]
- maturation of caudal vein EC filopodia into angiogenic sprouts [1]: never matured into angiogenic sprouts
- average EC migration distance during CVP formation ([1]; between 25 hpf and 30 hpf): 35 μm
- fold change 3-hydroxy-3-methylglutaryl-Coenzyme A synthase 1 (HMGCS) (HMGCR pathway [2]): 2.0 fold
- fold change Krueppel-like factor 11 (TIEG-2) (HMGCR pathway [2]): 2.1 fold
- fold change carbonyl reductase 1-like (HMGCR pathway [2]): 2.1 fold
- fold change coronin, actin binding protein, 1A (HMGCR pathway [2]): −2.1 fold
- fold change cytochrome P450, family 51 (CYP51) (HMGCR pathway [2]): 2.8 fold
- fold change farnesyl diphosphate synthetase (FDPS) (HMGCR pathway [2]): 2.0 fold
- fold change fatty acid desaturase 2 (HMGCR pathway [2]): 2.4 fold
- fold change glutamate dehydrogenase 1a (HMGCR pathway [2]): 2.2 fold
- fold change glutathione S-transferase (HMGCR pathway [2]): 3.2 fold
- fold change glutathione reductase like (HMGCR pathway [2]): 2.2 fold
- fold change insulin induced gene 1 (INSIG) (HMGCR pathway [2]): 2.6 fold
- fold change insulin-like growth factor binding protein 1 (HMGCR pathway [2]): 2.1 fold
- fold change lymphocyte cytosolic plastin 1 (HMGCR pathway [2]): −2.7 fold
- fold change lysozyme (HMGCR pathway [2]): −2.7 fold
- fold change myosin regulatory light chain interacting protein (HMGCR pathway [2]): −2.1 fold
- fold change nephrosin (HMGCR pathway [2]): −2.4 fold
- fold change selenoprotein W (HMGCR pathway [2]): 3.1 fold
- fold change sterol-C4-methyl oxidase-like (SC4MOL) (HMGCR pathway [2]): 2.0 fold
- fold change sulfotransferase (HMGCR pathway [2]): 3.0 fold
- efficiency of cholesterol reduction compared with atorvastatin (HMGCR pathway [3]; higher concentration (40 uL)): more efficient
- efficiency of cholesterol reduction compared with atorvastatin (HMGCR pathway [3]; lower concentration (10 uL)): as efficient as atorvastatin
- embryonic cholesterol levels (HMGCR pathway [3]; relative to 0.4% DMSO control): reduced embryonic cholesterol levels to a comparable degree as treatment with atorvastatin; also recorded: reduce cholesterol level significantly
- arterial (ephrin B2a) and venous (flt4, ephB4) marker expression [4]: could not distinguish aplexone-treated embryos from control embryos
- HUAEC migration (HUAECs; 5 μM aplexone, 8 hr): unaffected
- impediment in HUAEC migration (HUAECs; 10 μM aplexone, p<0.05): 10%
